# Measured values published in patent US20250186405A1, “Compound For Use In Treating Narcolepsy” (Alkermes, Inc., priority 2023, published 2025).
# Read-outs that look alike come from different tables or passages of the source.
# Assays:
# [1] = tested on: subjects with narcolepsy type-2 (NT2); conditions: human, in vivo
# Procedure: Part 5 consisted of a 4-way, 4-period crossover study design in approximately 8 subjects (2 subjects per sequence; minimum of 4 subjects with 1 subject per sequence). Subjects were randomized 1:1:1:1 to 1 of 4 sequences with 4 treatment periods (3 single doses of Compound A and 1 dose of matching placebo), with up to 48 hours of washout between treatments. Treatments were administered under fasted state.
# Subjects were randomized to 1 of 4 sequences. […] In each period, subjects were administered a single dose of study drug (either Compound A or placebo) as per the randomization schedule with approximately 240 mL of noncarbonated water following overnight fasting. No food was given for at least 3 hours after dose administration (i.e., fast can be broken after the 3-hour PK time point is collected). Water was allowed ad libitum except for 1 hour before and 1 hour after study drug administration. Safety assessments including AEs, safety ECGs, vital signs, and clinical laboratory tests were conducted, and plasma PK samples were collected. Furthermore, BP and HR were monitored once every hour for 12 hours on the dosing days.
# (§1) Adverse events (AEs) and serious adverse events (SAEs) were monitored continuously until the completion of the study.
# Nine subjects with NT2 were dosed in Part 5 (POC in NT2) in a randomized 4-sequence 4-period cross-over design. Each dose of Compound A or matching placebo was separated by 2 days. A 14-day washout period preceded the treatment period and included discontinuation of narcolepsy medications. All 9 subjects underwent the washout period and received at least one dose of Compound A. All subjects completed all 4-way randomized crossover periods.
# [2] = Part 4 NT1: plasma pharmacokinetics, single doses; assay type: in vivo; conditions: human, oral; for Cmax / AUC(0-t): geometric mean
# Procedure: Subjects were randomized to 1 of 4 sequences.
# Blood samples (up to 5 mL per sample) were collected for PK analysis of Compound A and its metabolite(s). The actual time of sample collection was recorded. The PK samples of the subjects randomized to placebo treatment were not analyzed. Any remaining plasma PK samples were used to explore the presence of any additional metabolites and/or biomarkers.
# Plasma and urine concentrations of Compound A and its metabolite(s) were measured using a validated high-performance liquid chromatography with tandem mass spectrometry.
# The PK population was used for summaries of plasma Compound A and its metabolite(s) concentrations and for analyses, summaries, and listing of PK parameters. Dose proportionality for Cmax, AUC0-t, and AUC0-∞ was evaluated using a linear model of logarithmically transformed values to assess the slope parameter, and the 95% CI for the slope was estimated. Where a 95% CI of the slope includes 1, it was considered as evidence of dose proportionality for that PK parameter.
# [3] = tested on: non-sleep deprived healthy volunteers; assay: Part 1 SAD: quantitative EEG (beta band power) and KSS biomarkers; assay type: in vivo, human; conditions: single doses, resting wakeful state
# Procedure: On Day −1, approximately 25 hours prior to study drug administration (on Day 1), baseline assessments for qEEG began and were collected for approximately 12 hours.
# At time points within Part 1 of the study, qEEG assessment was performed. The subject remained still in a seated or supine position during the EEG acquisition time points. Each EEG acquisition continued for a total of 10 minutes: initial 5 minutes with eyes closed followed by 5 minutes with eyes open looking at a fixation point.
# The PD parameters in the SAD evaluation (e.g., changes from baseline in QTcF, power of qEEG frequency bands, KSS) were summarized using descriptive statistics for each time point by dose level.
# As discussed above in Example sections 4.10.3.2, 4.13.4, and 4.15.1, pharmacodynamic parameters in the SAD evaluation (e.g., changes from baseline in QTcF, power of qEEG frequency bands, KSS) were measured in non-sleep deprived healthy volunteers. […] The dots indicate the average post-dose measurements at each timepoint and the shaded areas show the confidence intervals. The data points representing Compound A cluster in the area associated with both higher beta power and increased alertness relative to placebo, with little overlap between the two groups.
# [4] = tested on: subjects with idiopathic hypersomnia (IH); assay: Part 6 IH: Karolinska Sleepiness Scale (KSS); assay type: in vivo, human; conditions: for Change From Day −1 in Average Karolinska Sleepiness Scale, LSM difference vs placebo: N = 8; for Change From Day −1 in Average Karolinska Sleepiness Scale, LSM: N = 8, average of 1, 2, 4, 6, 8 h
# Procedure: At points within the study, subjects were asked to rate their sleepiness using the KSS with regard to the level of sleepiness they experienced over the past 5 minutes.
# The KSS is a validated, self-reported outcome measure of subjective sleepiness. The KSS was developed as a one-dimensional measure of sleepiness and has been validated against assessments like EEG and electrooculography activity (Akerstedt and Gillberg 1990). The KSS is comprised of a single question that asks the subject to rate their sleepiness in the immediately preceding 5 minutes on a 9-point scale where 1=extremely alert and 9=very sleepy, great effort to keep awake, fighting sleep. The KSS takes approximately 10 to 15 seconds to complete. Thus, the KSS is well suited for repeated measurement at short intervals as it assesses situational sleepiness within a short timeframe.
# The PD parameters in the POC evaluation (e.g., changes from baseline in sleep latency on MWT, number of errors on SART and level of sleepiness on KSS at matched time points) were summarized using descriptive statistics for each time point by dose level.
# healthy adult subjects = conditions: human, in vivo
# Procedure: Part 1 of the study is a SAD evaluation in healthy subjects consisting of 6 cohorts: Cohorts 1-6 received powder-in-capsule or matching placebo. There were approximately 8 subjects per cohort. Dose levels were as follows:
# No food was given for at least 4 hours after dose administration. Water was allowed ad libitum except for the time 1 hour before and 1 hour after study drug administration. Safety assessments including AEs, safety ECGs, vital signs, and clinical laboratory tests were conducted, and plasma PK samples were collected.
# as §1
smiles,measurement,setting,value
"CS(=O)(=O)N[C@H]1CCCN2C(=O)COc3ccccc3C3CCC(CC3)OCC12 (stereo partly drawn) [Compound A, N-[(4S,4aR,7α,10α)-1,2,3,4,4a,5,7,8,9,10,16,17-dodecahydro-17-oxo-7,10-ethanopyrido[1,2-d][1,7,4]benzodioxaazacyclotridecin-4-yl]methanesulfonamide]",TEAE by Preferred Term: Influenza,[1],1 (11.1) n (%)
same,Tmax,"[2]; 1 mg, NT1, 1 mg single dose, median, N = 3, read-out: Tmax",1.5 h
same,Tmax,"[2]; 3 mg, NT1, 3 mg single dose, median, N = 4, read-out: Tmax",1.5 h
same,Tmax,"[2]; 8 mg, NT1, 8 mg single dose, median, N = 3, read-out: Tmax",3 h
same,Tmax,"[2]; 8 mg, NT1, single dose 1, 3 and 8 mg (range 0.5 to 4.0), read-out: median Tmax",1.5 h
same,Cmax,"[2]; NT1, 1 mg single dose, N = 3",4.39 ng/mL
same,AUC(0-t),"[2]; NT1, 1 mg single dose, N = 3, read-out: AUC0-24",19.5 ng·h/mL
same,Cmax,"[2]; NT1, 3 mg single dose, N = 4",11.6 ng/mL
same,AUC(0-t),"[2]; NT1, 3 mg single dose, N = 4, read-out: AUC0-24",59.1 ng·h/mL
same,Cmax,"[2]; NT1, 8 mg single dose, N = 3",27.9 ng/mL
same,AUC(0-t),"[2]; NT1, 8 mg single dose, N = 3, read-out: AUC0-24",169 ng·h/mL
same,"qEEG beta band signal, change from baseline",[3],Dose-dependent increases in beta band signal were observed
same,"LS mean difference vs placebo in change from Day −1, average KSS",[4]; 5 mg,−1.08
same,"Change From Day −1 in Average Karolinska Sleepiness Scale, LSM difference vs placebo",[4]; 5 mg,−1.08
same,"Change From Day −1 in Average Karolinska Sleepiness Scale, LSM",[4]; 5 mg,−1.60
same,"LS mean difference vs placebo in change from Day −1, average KSS",[4]; 12 mg,−0.80
same,"Change From Day −1 in Average Karolinska Sleepiness Scale, LSM difference vs placebo",[4]; 12 mg,−0.80
same,"Change From Day −1 in Average Karolinska Sleepiness Scale, LSM",[4]; 12 mg,−1.33
same,"LS mean difference vs placebo in change from Day −1, average KSS",[4]; 25 mg,−2.18
same,"Change From Day −1 in Average Karolinska Sleepiness Scale, LSM difference vs placebo",[4]; 25 mg,−2.18
same,"Change From Day −1 in Average Karolinska Sleepiness Scale, LSM",[4]; 25 mg,−2.70
same,TEAE COVID-19,healthy adult subjects,3 n
